The results in this text go back to patent US20120264735A1 (priority 2009, published 2012).

Each structure is given as a SMILES string. A value given as a limit tells only on which side of the number the result lay.

For the experiment, the target named is T1, c-Met kinase (recombinant c-Met) (Homo sapiens, UniProt P08581).
T1 construct: 0.27 nM recombinant c-Met
T1 sequence (P08581 25-1390): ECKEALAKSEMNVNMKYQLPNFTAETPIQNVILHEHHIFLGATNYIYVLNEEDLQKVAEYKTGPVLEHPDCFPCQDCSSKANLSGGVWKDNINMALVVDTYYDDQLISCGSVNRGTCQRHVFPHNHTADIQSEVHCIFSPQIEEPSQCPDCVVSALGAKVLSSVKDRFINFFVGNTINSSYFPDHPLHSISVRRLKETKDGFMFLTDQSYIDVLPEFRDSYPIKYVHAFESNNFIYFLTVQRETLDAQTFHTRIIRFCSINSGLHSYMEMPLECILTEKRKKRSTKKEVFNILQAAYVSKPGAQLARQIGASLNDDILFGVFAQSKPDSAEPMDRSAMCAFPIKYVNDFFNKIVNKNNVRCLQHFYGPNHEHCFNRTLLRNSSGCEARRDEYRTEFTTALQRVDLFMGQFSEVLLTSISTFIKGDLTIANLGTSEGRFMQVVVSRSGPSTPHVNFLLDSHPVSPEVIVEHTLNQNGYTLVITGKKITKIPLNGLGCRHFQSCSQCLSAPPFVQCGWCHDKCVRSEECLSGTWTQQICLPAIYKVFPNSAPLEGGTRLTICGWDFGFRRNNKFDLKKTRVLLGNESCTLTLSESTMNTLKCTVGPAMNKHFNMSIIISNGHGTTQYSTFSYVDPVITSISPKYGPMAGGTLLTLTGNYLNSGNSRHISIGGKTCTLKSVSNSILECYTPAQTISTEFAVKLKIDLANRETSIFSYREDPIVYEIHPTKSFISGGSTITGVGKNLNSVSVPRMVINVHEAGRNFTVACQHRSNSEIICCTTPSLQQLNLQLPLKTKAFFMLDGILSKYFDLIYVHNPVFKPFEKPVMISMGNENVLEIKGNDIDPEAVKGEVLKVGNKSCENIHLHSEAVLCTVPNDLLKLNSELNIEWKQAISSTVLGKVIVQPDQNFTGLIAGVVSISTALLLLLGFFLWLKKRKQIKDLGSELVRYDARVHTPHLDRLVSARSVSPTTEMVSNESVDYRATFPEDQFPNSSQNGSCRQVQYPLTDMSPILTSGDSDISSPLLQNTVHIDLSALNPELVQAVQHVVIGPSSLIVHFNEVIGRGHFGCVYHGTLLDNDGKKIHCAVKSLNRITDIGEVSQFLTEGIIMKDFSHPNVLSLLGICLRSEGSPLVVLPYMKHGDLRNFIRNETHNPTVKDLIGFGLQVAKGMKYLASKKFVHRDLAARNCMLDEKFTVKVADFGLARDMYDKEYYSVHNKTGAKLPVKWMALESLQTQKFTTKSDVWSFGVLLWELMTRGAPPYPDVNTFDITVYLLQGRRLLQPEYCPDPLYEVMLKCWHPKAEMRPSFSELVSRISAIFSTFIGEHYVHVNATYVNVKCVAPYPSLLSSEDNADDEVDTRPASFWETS
The experiment is described as follows: In vitro kinase assay I (homogeneous time-resolved fluorescence tyrosine kinase assay). In kind it is biochemical. The gist of the method: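 Biotinylated peptide (0.5 μM) phosphorylated by 0.2 nM recombinant c-Met with 50 μM MgATP, 60 min at room temperature, pH 7.4, 5% DMSO. EDTA stop; HTRF read with Eu-anti-phosphotyrosine antibody and streptavidin-APC. IC50 from 4-parameter logistic fit.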
Turning to `CC(C)COC(=O)Nc1cccc(Cc2nn(-c3cnn(CCC(=O)NC4COC4)c3)ccc2=O)c1` [Example 704, 2-methylpropyl {3-[(1-{1-[3-(oxetan-3-ylamino)-3-oxopropyl]-1H-pyrazol-4-yl}-4-oxo-1,4-dihydropyridazin-3-yl)methyl]phenyl} carbamate], the 50% inhibitory concentration (IC50) is less than 100 nM.
As for `O=c1ccn(-c2ccc(Cl)cc2)nc1Cc1ccc(O)cc1` [Example 754, 1-(4-Chlorophenyl)-3-(4-hydroxybenzyl)pyridazin-4(1H)-one], the IC50 fell in the range of 100 to 1000 nM.
Under `Cn1cc(-n2ccc(=O)c(Cc3cccc(N4CCCC4=O)c3)n2)cn1` [Example 636, 1-(1-Methyl-1H-pyrazol-4-yl)-3-[3-(2-oxopyrrolidin-1-yl)benzyl]pyridazin-4(1H)-one] stands 100 to 1000 nM.
In the case of `Cn1cc(-n2ccc(=O)c(Cc3cccc(-c4ncc(OCC5COCCO5)cn4)c3)n2)cn1` (single isomer, unassigned) [Example 347, 3-(3-{5-[(2R or-S)-1,4-dioxan-2-ylmethoxy]pyrimidin-2-yl}benzyl)-1-(1-methyl-1H-pyrazol-4-yl)pyridazin-4(1H)-one], the concentration for half-maximal inhibition (IC50) is less than 100 nM.
Under `Cn1cc(-n2ccc(=O)c(Cc3cccc(-c4ncc(-c5ccnnc5)cn4)c3)n2)cn1` [Example 425, 1-(1-methyl-1H-pyrazol-4-yl)-3-[3-(5-pyridazin-4-ylpyrimidin-2-yl)benzyl]pyridazin-4(1H)-one] stands less than 100 nM.
As to `CCOc1cnc2ccc(C(C)c3nn(-c4cnn(CC)c4)ccc3=O)cc2c1` (single isomer, unassigned) [Example 227, 3-[(1R or S)-1-(3-ethoxyquinolin-6-yl)ethyl]-1-(1-ethyl-1H-pyrazol-4-yl)pyridazin-4(1H)-one], the IC50 is less than 100 nM.
Regarding `Cn1cc(-n2ccc(=O)c(C(F)c3ccc4ncccc4c3)n2)cn1` (racemic) [Example 753, rac-3-[Fluoro(quinolin-6-yl)methyl]-1-(1-methyl-1H-pyrazol-4-yl)pyridazin-4(1H)-one], the IC50 lay within 1000 to 3000 nM.
Under `Cn1cc(-n2ccc(=O)c(Cc3ccc4occc4c3)n2)cn1` [Example 51, 3-(1-benzofuran-5-ylmethyl)-1-(1-methyl-1H-pyrazol-4-yl)pyridazin-4(1H)-one] stands 1000 to 3000 nM.
Under `CNC(=O)CCn1cc(-n2ccc(=O)c(Cc3cccc(NC(=O)OCC(C)C)c3)n2)cn1` [Example 702, 2-methylpropyl {3-[(1-{1-[3-(methylamino)-3-oxopropyl]-1H-pyrazol-4-yl}-4-oxo-1,4-dihydropyridazin-3-yl)methyl]phenyl} carbamate] stands less than 100 nM; under `CCn1cc(-n2ccc(=O)c(C(C)c3cccc(-c4ncc(O)cn4)c3)n2)cn1` (single isomer, unassigned) [Example 258, 1-(1-ethyl-1H-pyrazol-4-yl)-3-{(1R or S)-1-[3-(5-hydroxypyrimidin-2-yl)phenyl]ethyl}pyridazin-4(1H)-one], less than 100 nM; under `CCOC(=O)Nc1cccc(Cc2nn(-c3cccc(O)c3)ccc2=O)c1` [Example 646, Ethyl(3-{[1-(3-hydroxyphenyl)-4-oxo-1,4-dihydropyridazin-3-yl]methyl}phenyl)carbamate], less than 100 nM.
In the case of `Cn1cc(-n2ccc(=O)c(Cc3cccc(NC(=O)OCC4CCOCC4)c3)n2)cn1` [Example 541, tetrahydro-2H-pyran-4-ylmethyl (3-{[1-(1-methyl-1H-pyrazol-4-yl)-4-oxo-1,4-dihydropyridazin-3-yl]methyl}phenyl)carbamate], the IC50 is less than 100 nM.
On to `CC(C)COC(=O)Nc1cccc(Cc2nn(-c3ccc(F)c(F)c3)ccc2=O)c1` [Example 505, 2-methylpropyl (3-{[1-(3,4-difluorophenyl)-4-oxo-1,4-dihydropyridazin-3-yl]methyl}phenyl)carbamate], for which the IC50 was less than 100 nM.
Under `CCn1cc(-n2ccc(=O)c(C(C)c3cccc(-c4ncc(OCc5ccccc5)cn4)c3)n2)cn1` (single isomer, unassigned) [Example 229, 3-((1R or S)-1-{3-[5-(benzyloxy)pyrimidin-2-yl]phenyl}ethyl)-1-(1-ethyl-1H-pyrazol-4-yl)pyridazin-4(1H)-one] stands less than 100 nM.
In the case of `Cn1cc(-n2ccc(=O)c(Cc3cccc(-c4ncc(-c5cnc(N)nc5)cn4)c3)n2)cn1` [Example 417, 3-[3-(2′-amino-5,5′-bipyrimidin-2-yl)benzyl]-1-(1-methyl-1H-pyrazol-4-yl)pyridazin-4(1H)-one], the IC50 was less than 100 nM.
Take `COC(C)(C)COc1cnc(-c2cccc(C(C)c3nn(-c4ccc(F)c(F)c4)ccc3=O)c2)nc1` (single isomer, unassigned) [Example 252, 1-(3,4-difluorophenyl)-3-[(1R or S)-1-{3-[5-(2-methoxy-2-methylpropoxy)pyrimidin-2-yl]phenyl}ethyl]pyridazin-4(1H)-one]: the IC50 was less than 100 nM.
Take `CCOc1cnc(-c2cccc(C(C)c3nn(-c4cccc(C#N)c4)ccc3=O)c2)nc1` (racemic) [Example 224, rac-3-[3-{1-[3-(5-ethoxypyrimidin-2-yl)phenyl]ethyl}-4-oxopyridazin-1(4H)-yl]benzonitrile]: the IC50 is less than 100 nM.
As for `Cn1cc(-n2ccc(=O)c(Cc3cccc(-c4ncc(OCCc5cnoc5)cn4)c3)n2)cn1` [Example 273, 3-{3-[5-(2-isoxazol-4-ylethoxy)pyrimidin-2-yl]benzyl}-1-(1-methyl-1H-pyrazol-4-yl)pyridazin-4(1H)-one], the 50% inhibitory concentration (IC50) was less than 100 nM.
Under `O=c1ccn(-c2ccccc2)nc1Cc1cccc(-c2ccccn2)c1` [Example 671, 1-phenyl-3-(3-pyridin-2-ylbenzyl) pyridazin-4(1H)-one] stands 1000 to 3000 nM.
Regarding `COCCCOC(=O)Nc1cccc(Cc2nn(-c3cnn(C)c3)ccc2=O)c1` [Example 575, 3-methoxypropyl (3-{[1-(1-methyl-1H-pyrazol-4-yl)-4-oxo-1,4-dihydropyridazin-3-yl]methyl}phenyl)carbamate], the IC50 was less than 100 nM.
Regarding `Cn1cc(-c2cnc(-c3cccc(Cc4nn(-c5cnn(C)c5)ccc4=O)c3)nc2)cn1` [Example 154, 1-(1-methyl-1H-pyrazol-4-yl)-3-{3-[5-(1-methyl-1H-pyrazol-4-yl)pyrimidin-2-yl]benzyl}pyridazin-4(1H)-one], the concentration for half-maximal inhibition (IC50) was less than 100 nM.
Under `CCn1cc(-n2ccc(=O)c(Cc3cccc(-c4ncc(OC5CCOC5)cn4)c3)n2)cn1` (racemic) [Example 309, rac-1-(1-ethyl-1H-pyrazol-4-yl)-3-{3-[5-(tetrahydrofuran-3-yloxy)pyrimidin-2-yl]benzyl}pyridazin-4(1H)-one] stands less than 100 nM; under `Cn1cc(-n2ccc(=O)c(Cc3cccc(NC(=O)OCC4CC(C)(C)OC(C)(C)C4)c3)n2)cn1` [Example 609, (2,2,6,6-tetramethyltetra-hydro-2H-pyran-4-yl)methyl (3-{[1-(1-methyl-1H-pyrazol-4-yl)-4-oxo-1,4-dihydropyridazin-3-yl]methyl}phenyl)carbamate], less than 100 nM; under `Cn1cc(-n2ccc(=O)c(Cc3cccc(-c4ncn(CCC5CCCO5)n4)c3)n2)cn1` (racemic) [Example 711, rac-1-(1-methyl-1H-pyrazol-4-yl)-3-(3-{1-[2-(tetrahydrofuran-2-yl)ethyl]-1H-1,2,4-triazol-3-yl}benzyl)pyridazin-4(1H)-one], less than 100 nM.
Take `O=c1ccn(-c2ccc(F)c(F)c2)nc1Cc1cccc(-c2ncc(OC3CCOC3)cn2)c1` (racemic) [Example 327, rac-1-(3,4-difluorophenyl)-3-{3-[5-(tetrahydrofuran-3-yloxy)pyrimidin-2-yl]benzyl}pyridazin-4(1H)-one]: the IC50 is less than 100 nM.
As to `CCOc1ccc(-c2cccc(Cc3nn(-c4cnn(C)c4)ccc3=O)c2)nc1` [Example 677], the IC50 was less than 100 nM.
Turning to `Cn1cc(-n2ccc(=O)c(Cc3cccc(-c4ncc(C5CCOC5)cn4)c3)n2)cn1` (racemic) [compound 199, rac-1-(1-methyl-1H-pyrazol-4-yl)-3-{3-[5-(tetrahydrofuran-3-yl)pyrimidin-2-yl]benzyl} pyridazin-4(1H)-one], the IC50 is less than 100 nM.
Take `O=C(Nc1cccc(Cc2nn(-c3cc(F)c(F)c(F)c3)ccc2=O)c1)OCC1CCCC1` [Example 556, cyclopentylmethyl (3-{[4-oxo-1-(3,4,5-trifluorophenyl)-1,4-dihydropyridazin-3-yl]methyl}phenyl)carbamate]: the concentration for half-maximal inhibition (IC50) is less than 100 nM.
On to `Cn1cc(-n2ccc(=O)c(Cc3cccc(-c4ncc(N5CCC(O)C5)cn4)c3)n2)cn1` (racemic) [Example 440, rac-3-{3-[5-(3-Hydroxypyrrolidin-1-yl)pyrimidin-2-yl]benzyl}-1-(1-methy 1H-pyrazol-4-yl)pyridazin-4(1H)-one], for which the IC50 was less than 100 nM.
In the case of `COCC(=O)Nc1cnc(-c2cccc(Cc3nn(-c4cnn(C)c4)ccc3=O)c2)nc1` [Example 461, 2-methoxy-N-[2-(3-{[1-(1-methyl-1H-pyrazol-4-yl)-4-oxo-1,4-dihydro-pyridazin-3-yl]methyl}phenyl)pyrimidin-5-yl]acetamide], the IC50 is less than 100 nM.
Consider `O=C(Nc1cccc(Cc2nn(-c3cc(F)c(F)c(F)c3)ccc2=O)c1)OCC1CCCCC1` [Example 557, cyclohexylmethyl (3-{[4-oxo-1-(3,4,5-trifluorophenyl)-1,4-dihydropyridazin-3-yl]methyl}phenyl)carbamate], for which the IC50 was less than 100 nM.
For the compound `Cn1cc(-n2ccc(=O)c(Cc3cccc(NC(=O)OCC4CCCC4)c3)n2)cn1` [Example 539, cyclopentylmethyl (3-{[1-(1-methyl-1H-pyrazol-4-yl)-4-oxo-1,4-dihydropyridazin-3-yl]methyl}phenyl)carbamate], the IC50 is less than 100 nM.
`CCC(COC(=O)Nc1cccc(Cc2nn(-c3cc(F)cc(F)c3)ccc2=O)c1)OC` (racemic) [Example 591, rac-2-methoxybutyl (3-{[1-(3,5-difluorophenyl)-4-oxo-1,4-dihydropyridazin-3-yl]methyl}phenyl)carbamate]: the IC50 is less than 100 nM.
